Assay results published in patent US9445979B2, “Hair treatment composition containing gambogic acid, ester or amide” (DSM IP ASSETS B.V., priority 2010, dated 2016).

How the values were obtained:
Assay type in all cases: cell-based
[1] = tested on: human hair follicles; test: Hair shaft elongation, hair cycle progression and toxicity in cultured human anagen VI hair follicles
Experimental: (§1) Tissue containing human hair follicles in the growth stage (anagen) of the hair cycle were obtained from elective facial surgery interventions. Hair follicles were isolated and maintained in culture according to methods well established in the art (Philpott et al. 1990, J Cell Sci. 97: 463-471). Gambogic amide (GA) was administered to pigmented cultured anagen VI hair follicle every other day over a culture period of 7 days in various concentrations comprised between 10 nano molar and 1 micro molar and compared to a control group without addition of GA.
Hair shaft elongation was measured as a way to assess possible hair growth promoting or inhibiting effects of GA. […] It is therefore concluded from this first observation that the dose range in which GA can be used is between 10 nano molar and 1 micro molar, and that GA can be used as a hair growth promoting or restoring agent.

[2] = tested on: human hair follicles; test: Macroscopic analysis of hair follicle pigmentation in cultured anagen hair follicles; details: 0.1 to 1 micro molar GA, 7 day culture, versus control group
Experimental: as §1

[3] = tested on: melanocytes in human hair follicles; test: Immunohistochemical analysis of melanocytes in cultured hair follicles (NKI-beteb, Ki67, Trp2, cKit)
Text: Number of melanocytes in the hair follicle can be evaluated by standard methods e.g.: immunohistochemical staining of the melanocytes with the pan-melanocyte marker NKI-beteb following by counting the NKI-beteb+ cells.
Differentiation and migration of melanocytes from the hair sheath to the hair matrix can be measured by immunohistochemical staining of c-kit+ melanocytes in the hair follicle, and by assessing their distribution within the hair follicle.
as §1
Immunohistochemical analysis of hair follicle was performed according to standard methods. Immunohistochemical staining of the pan-melanocyte marker NKI-beteb and the proliferation marker Ki67 was used to asses total number of melanocytes in cultured follicles in presence of GA. […] This increase was dose dependent. […]

CC(C)=CCC[C@]1(C)C=Cc2c(O)c3c(c(CC=C(C)C)c2O1)O[C@]12C(=C[C@@H]4C[C@H]1C(C)(C)O[C@@]2(C/C=C(/C)C(N)=O)C4=O)C3=O [GA, 2-Butenamide, 2-methyl-4-[(1R,3aS,5S,11R,14aS)-3a,4,5,7-tetrahydro-8-hydroxy-3,3,11-trimethyl-13-(3-methyl-2-buten-1-yl)-11-(4-methyl-3-penten-1-yl)-7,15-dioxo-1,5-methano-1H,3H,11H-furo[3,4-g]pyrano[3,2-b]xanthen-1-yl]-, (2Z)-]
signs of toxicity ([1]; concentrations as high as 1 micro): No signs of toxicity were observed
hair shaft elongation compared to control ([1]; concentrations between 0.1 and 1 micro molar, 7 days culture): increase in hair shaft elongation
hair cycle progression ([1]; with the application of GA, 7 days culture): no hair cycle progression was observed
hair follicle pigmentation (macroscopic analysis) [2]: clear and significant improvement of hair follicle pigmentation
total number of melanocytes (NKI-beteb and Ki67 staining) ([3]; between 0.1 and 0.5 micro molar, hair follicles that remained in the anagen stage): total number of melanocytes was increased
cKit labeling (marker for migrating, activated early melanocytes) ([3]; hair follicles treated between 0.1 and 1 micro molar GA): most pronouncedly found
